The assay concerns mice with formed alcohol dependence (male mice of SHK line). Briefly: Alcohol-deprivation effect (ADE): voluntary consumption of 10% alcohol in a 90-minute test before and after 4-day deprivation. It counts as in vivo. The conditions noted are these: for Alcohol consumption before deprivation: baseline test before deprivation and dosing; for ADE (ADE index): index >0.5 = alcohol dependence. As to the method:
Alcohol dependence is determined by the increasing of alcohol consumption induced by short-time deprivation of alcohol. The occurrence and the level of this increasing is a criterion for self-control loss during the period of heavy drinking [Maisky A. I., Salimov R. M. Procedural guidelines for investigation of anti-alcohol medications. The guidebook for experimental (preclinical) investigation of novel pharmacological substances. Ed. Harbiev R. U., publ. “Medicine”, Moscow, 2005, p. 342-356].
For overcoming of the possible first-use gustatory rejection of alcohol solution during the first 6 days of the experiment male mice of SHK line were not given water, they had access only to alcohol solution of increasing concentration (3%—on the first and second days, 6%—on the third and fourth days and 10%—on the fifth and sixth days) [Mc Kinzie et al., Alcohol Clin Exp Res. 1998, 22(7):1584-90]. At that, free access to food was provided. During the next 2 months the animals had free access to pure water, food and 10% solution of alcohol.
For quantitative estimation of alcohol motivation the amount of voluntary alcohol (10% solution) consumption during the 90-minute's test after 4-day's alcohol deprivation was compared with the amount of alcohol consumed during the test carried out before 4-day's alcohol deprivation (alcohol-deprivation effect, ADE). ADE index was calculated as a ratio of alcohol consumption after its withdrawal (grams of pure alcohol per kilogram of body mass) to the total alcohol consumption before and after its withdrawal. The existence of alcohol dependence is determined by the value of ADE index exceeding 0.5, a lower meaning of ADE index corresponds to the absence of alcohol dependence.
At the end of 2-month's period of free access to water and alcohol the above estimation of ADE was carried out, and for further experiments the animals with ADE index exceeding 0.5 were selected. These mice, which had practically identical ADE values, were divided into groups of 9-12 animals.
Sodium γ-hydroxybutyrate was used as a reference drug in the experiments with male mice of SHK line.
Peroral administration once a day for 4 days running

[1] abbreviates: dose 0.5 mg/kg peroral once a day for 4 days during deprivation.
Setting [2] is: dose 3.0 mg/kg peroral once a day for 4 days during deprivation.
Where [3] appears, read: dose 10.0 mg/kg peroral once a day for 4 days during deprivation.
The mark [4] stands for this setting: dose 10.0 mg/kg peroral once a day for 4 days.
Setting [5] is: dose 20.0 mg/kg peroral once a day for 4 days during deprivation.
Setting [6] is: dose 2.0 mg/kg peroral once a day for 4 days during deprivation.
Setting [7] is: dose 150 mg/kg peroral once a day for 4 days during deprivation.

Three compounds from patent publication US20110245231A1, “ACTIVE SUBSTANCE AND PHARMACEUTICAL COMPOSITION FOR TREATING ALCOHOL DEPENDENCE, AND A METHOD FOR OBTAINING AND THE USE OF SAID ACTIVE SUBSTANCE” (Alla Chem, LLC, priority 2009, published 2011) can be followed below.

Structures are written as SMILES.

In the case of `Br.CCSc1nc2ccccc2[nH]1` [1.1, 2-ethylsulfanyl-1H-benzimidazole hydrobromide], the “alcohol-deprivation effect (increasing of alcohol consumption after 4-days' deprivation), observed or not” value (0.5 mg/kg dose) was “observed”. The “post-deprivation increasing of alcohol consumption, observed or not” value (3-20 mg/kg) was “not observed”. The “Alcohol consumption after deprivation” value is, setting by setting: under setting [1], 4.36 ± 1.10 g/kg; under setting [2], 2.60 ± 1.10 g/kg; under setting [3], 1.59 ± 1.10 g/kg; under setting [5], 1.55 ± 1.10 g/kg. Besides, the “Alcohol consumption before deprivation” value turned out to be 1.96 ± 0.75 g/kg under setting [1], 3.49 ± 0.75 g/kg under setting [2], 2.79 ± 0.75 g/kg under setting [3] and 2.56 ± 0.75 g/kg under setting [5]. Besides, the “ADE (ADE index)” value (dose 0.5 mg/kg peroral once a day for 4 days) is recorded as 0.65 ± 0.07, the “ADE (ADE index)” value (dose 3.0 mg/kg peroral once a day for 4 days) stood at 0.46 ± 0.07, the “ADE (ADE index)” value under setting [4] was found to be 0.39 ± 0.07 and the “ADE (ADE index)” value (dose 20.0 mg/kg peroral once a day for 4 days) is given as 0.31 ± 0.07. In addition, the “dose at which the decrease of alcohol-deprivation effect appears” value (dose-dependent, more noticeable at 20 mg/kg) was determined as 3 mg/kg.

For the compound `Cl.c1c(C2CCCCC2)cc2c3c(n4c2c1NCC4)CCCC3` [2.2, 5-cyclohexyl-2,3,7,8,9,10-hexahydro-1H-pyrazino[3,2,1-jk]carbazole hydrochloride], the “alcohol-deprivation effect (increasing of alcohol consumption after 4-days' deprivation), observed or not” value (2 and 10 mg/kg doses) is recorded as “observed”. Also, the “Alcohol consumption after deprivation” value was found to be 3.42 ± 1.16 g/kg under setting [6] and 5.05 ± 1.10 g/kg under setting [3]. For the same compound, the “Alcohol consumption before deprivation” value under setting [6] is on record as 2.61 ± 0.79 g/kg and the “Alcohol consumption before deprivation” value under setting [3] is reported as 2.61 ± 0.75 g/kg. Further, the “ADE (ADE index)” value is, setting by setting: (dose 2.0 mg/kg peroral once a day for 4 days) 0.58 ± 0.08; under setting [4], 0.61 ± 0.07. Moreover, the “influence on ADE, in words” value (used alone in doses of 2-10 mg/kg) was “does not influence ADE”.

`O=C([O-])CCCO.[Na+]` [SHB, sodium γ-hydroxybutyrate]: under setting [7], the “Alcohol consumption after deprivation” value is recorded as 1.49 ± 1.10 g/kg and the “Alcohol consumption before deprivation” value is 2.36 ± 0.75 g/kg. Besides, the “ADE (ADE index)” value (dose 150 mg/kg peroral once a day for 4 days) stood at 0.45 ± 0.07. Moreover, the “effect on alcohol-deprivation effect, in words” value (reference drug, 150 mg/kg (Table 3)) is reported as “significant decreasing of alcohol-deprivation effect”.
